Tests used:
[1] = test system: wild-type (AUX-B 1) Chinese Hamster ovary cells; assay: CHO Microtiter Cytotoxicity Assay (XTT), wild-type (AUX-B1); assay type: cell-based; conditions: Cricetulus griseus, AuxB1, 72 h, 3 days, read-out: Cytotoxicity IC50, Wildtype (AUX-B1)
Method: (§1) The in vitro assays used to test the compound of the present invention for antitumor activity are well-known. A generalized description of these assays follows.
(§2) Chinese Hamster ovary cells are grown in Alpha MEM Medium with L-glutamine and nucleosides and containing 10% fetal bovine serum and 100 units per mL penicillin-streptomycin in 75 cm^2 canted neck tissue culture flasks. They are harvested from these flasks using 0.5% trypsin. Microtiter plates (96-well, sterile, flat bottom) (Corning 25860) are seeded with 1.6×10^3 wild-type (AUX-B 1) Chinese Hamster ovary cells per well or 2×10^3 multidrug resistant (CH^R C5) Chinese Hamster ovary cells per well. The plates are incubated at 37° C., 5% CO2 overnight to allow the cells to attach. The outside wells of each plate are not used, due to evaporation during the incubation time. They are filled with medium and used as blanks. The next day, the medium is aspirated from the wells and 180 μL of fresh medium is added to each well. Compounds are diluted from stock solution in DMSO into fresh medium to a 10X concentration containing 2% DMSO. Twenty μL of this is then added to the 180 μL, of fresh medium in the wells. The plates are then incubated for another 3 days at 37° C., 5% CO2. Eight mg of XTT (SIGMA X-4251) is dissolved in 100 μL of DMSO which is then added to 3.9 mL of phosphate buffered saline without cations (PBS). Phenazine methosulfate (SIGMA P-9625) is dissolved in PBS to a concentration of 3 mg/mL and 20 μL of this is added to the XTT solution. Fifty μL of this XTT/PMS solution is added to each well of the microliter plate and the plates are incubated for 90 minutes at 37° C., 5% CO2 (until the OD450 ~1.0). The plate is then read on a UV Max plate reader, using wells without cells (i.e., containing only 200 μL of medium and 50 μL of XTT/PMS solution) as a background control.

[2] = test system: multidrug resistant (CH^R C5) Chinese Hamster ovary cells; assay: CHO Microtiter Cytotoxicity Assay (XTT), multidrug resistant (CH^R C5); assay type: cell-based; conditions: Cricetulus griseus, CHRC5, 72 h, 3 days
Method: as §1, §2

[3] = test system: P388; assay: Cytotoxicity IC50, P388; assay type: cell-based; conditions: Mus musculus
[4] = test system: topoisomerase I; conditions: background statement; cited from earlier work
[5] = test system: topoisomerase II; conditions: background statement; cited from earlier work
[6] = background statement; cited from earlier work
[7] = test system: P388; assay: Efficacy in mouse tumor model P388 (in vivo)
Method: The cytotoxicity and efficacy of the compound of the present invention was also tested in vivo using the well-known P388 mouse tumor model.

[8] = test system: solid tumor cancers, particularly ovarian cancer and non-small cell lung carcinoma; conditions: humans; cited from earlier work
[9] = background statement; cited from earlier work; remark: listed apart in the source

Row | SMILES | IC50 [1] [nM] | IC50 [2] [nM] | IC50 [3] [nM] | water solubility [6] | also measured
1 | CC[C@@]1(O)C(=O)OCc2c1cc1n(c2=O)Cc2cc3ccccc3nc2-1 [Camptothecin] | 15 | 35 | 12 | water-insoluble | inhibition of topoisomerase I [4]: known to inhibit topoisomerase I; effect on topoisomerase II [5]: no effect on topoisomerase II
2 | CC[C@@]1(O)C(=O)OCc2c1cc1n(c2=O)Cc2cc3c(CN(C)C)c(O)ccc3nc2-1 [Topotecan, 9-dimethylaminomethyl-10-hydroxycamptothecin] | 790 | 2300 | 30 | – | Efficacy in Mouse Tumor Models, % Inc. in Lifespan, P388 ([7]; dose 14.4 mg/kg, route not given): 156%; efficacy in clinical tests [8]: demonstrated efficacy against several solid tumor cancers, particularly ovarian cancer and non-small cell lung carcinoma in humans
3 | CCc1c2c(nc3ccc(OC(=O)N4CCC(N5CCCCC5)CC4)cc13)-c1cc3c(c(=O)n1C2)COC(=O)[C@]3(O)CC [CPT-11, (S)-[1,4'-bipiperidine]-1'-carboxylic acid,4,11-diethyl-3,4,12,14-tetrahydro-4-hydroxy-3, 14-dioxo-1H-pyrano[3',4':6,7]indolizino[1,2-b]quinolin-9-yl] | – | – | – | – | toxicity [9]: adverse toxicity profile
4 | CC[C@@]1(O)C(=O)OCc2c1cc1n(c2=O)Cc2c-1nc1ccc(O)c3c1c2CN(C)C3 [Formula I, S-9-ethyl-2,3-dihydro-4,9-dihydroxy-2-methyl-1H,12H-benzo[ij]pyrano[3', 4':6,7]indolizino[1,2-c][2,6]naphthyridine-10,13(H,15H)-dione] | 52 | 840 | 24 | – | Efficacy in Mouse Tumor Models, % Inc. in Lifespan, P388 ([7]; dose 40 mg/kg ip): 111%; biological activity (cytotoxicity and efficacy in mouse tumor models) versus topotecan ([7]; summary of Table I): comparable to topotecan
5 | CC[C@@]1(O)C(=O)OCc2c1cc1n(c2=O)Cc2cc3c(N)cccc3nc2-1 [9-aminocamptothecin, (S)-10-amino-4-ethyl-4-hydroxy-1H-pyrano[3',4':6,7]indolizino[1,2-b]quinoline-3, 14(4H,12H)-dione] | – | – | – | limited water solubility | –
